Data as given in patent publication US20070128217A1 (priority 2003, published 2007).

Experiments:
[1] = system: antibodies in sera from SARS patients (sera 1a, 1b, 2, 6, 37, 62, London, SARS-yellow, SARS-green); assay type: binding, human; parameters: Binding of serum 6 to linear peptides of protein X1 of SARS-CoV Urbani / Binding of serum 37 to linear peptides of protein X1 of SARS-CoV Urbani / Binding of serum 6 to looped/cyclic peptide (PEPSCAN-ELISA) / Binding of serum 37 to looped/cyclic peptide (PEPSCAN-ELISA) / Binding of serum 37 to looped/cyclic peptides of protein X1 of SARS-CoV Urbani / Binding of serum 6 to linear peptides of protein X2 / Binding of serum 37 to linear peptides of protein X2 / Binding of serum 37 to looped/cyclic peptides of protein X2 of SARS-CoV Urbani / Binding of serum 6 to linear peptides of protein M of SARS-CoV Urbani / Binding of serum 37 to linear peptides of protein M of SARS-CoV Urbani / Binding of serum 6 to looped/cyclic peptides of protein M of SARS-CoV Urbani / Binding of serum 37 to looped/cyclic peptides of protein M of SARS-CoV Urbani / Binding of serum 6 to linear peptides of protein X3 of SARS-CoV Urbani / Binding of serum 37 to linear peptides of protein X3 of SARS-CoV Urbani / Binding of serum 37 to looped/cyclic peptides of protein X3 of SARS-CoV Urbani / Binding of serum 6 to linear peptides of protein X4 of SARS-CoV Urbani / Binding of serum 37 to linear peptides of protein X4 of SARS-CoV Urbani / Binding of serum 37 to looped/cyclic peptides of protein X4 of SARS-CoV Urbani / Binding of serum 6 to linear peptides of protein X5 of SARS-CoV Urbani / Binding of serum 37 to linear peptides of protein X5 of SARS-CoV Urbani / Binding of serum 37 to looped/cyclic peptides of protein X5 of SARS-CoV Urbani / Binding of serum 6 to linear peptides of protein N of SARS-CoV Urbani / Binding of serum 37 to linear peptides of protein N of SARS-CoV Urbani / Binding of serum 6 to linear peptide (PEPSCAN-ELISA) / Binding of serum 1a to looped/cyclic peptides of protein N of SARS-CoV Urbani / Binding of serum 1b to looped/cyclic peptides of protein N of SARS-CoV Urbani / Binding of serum 2 to looped/cyclic peptides of protein N of SARS-CoV Urbani / Binding of serum 6 to looped/cyclic peptides of protein N of SARS-CoV Urbani / Binding of serum 37 to looped/cyclic peptides of protein N of SARS-CoV Urbani / Binding of serum 62 to looped/cyclic peptides of protein N of SARS-CoV Urbani / Binding of serum London to looped/cyclic peptides of protein N of SARS-CoV Urbani / Binding of serum SARS-green to looped/cyclic peptides of protein N of SARS-CoV Urbani: unit not given here
[2] = system: rabbit serum obtained by immunizing a rabbit with the SARS-CoV strain Frankfurt 1; assay type: binding; parameters: Binding of a rabbit serum to linear peptides / Binding of a rabbit serum to looped peptides / Rabbit serum linear peptides / Rabbit serum looped peptides / Binding of a rabbit serum to linear peptides of protein N of SARS-CoV Urbani (Rabbit serum linear peptides) / Binding of a rabbit serum to looped/cyclic peptides of protein N of SARS-CoV Urbani (Rabbit serum looped peptides): unit not given here
[3] = system: control sera (pooled serum of ten healthy LUMC hospital workers; commercial negative donor pooled serum from the Dutch bloodbank); assay type: binding, human; parameters: Binding of Control serum LUMC to linear peptides / Binding of Control serum Blood-bank to linear peptides / Binding of Control serum LUMC to looped peptides / Binding of Control Serum Blood-Bank to Looped peptides / Binding of Control serum LUMC to linear peptides of the protein M of SARS-CoV Urbani / Binding of Control serum Blood-bank to linear peptides of the protein M of SARS-CoV Urbani / Binding of Control serum LUMC to looped peptides of the protein M of SARS-CoV Urbani / Binding of Control Serum Blood-Bank to Looped peptides of the protein M of SARS-CoV Urbani: unit not given here

SGFAAYNRYRIGNYK
Binding of serum 1a to linear peptides of protein M of SARS-CoV Urbani [1]: 0.8
Binding of serum 1a to looped/cyclic peptides of protein M of SARS-CoV Urbani [1]: 0.9
Binding of serum 1b to linear peptides of protein M of SARS-CoV Urbani [1]: 0.4
Binding of serum 1b to looped/cyclic peptides of protein M of SARS-CoV Urbani [1]: 0.6
Binding of serum 2 to linear peptides of protein M of SARS-CoV Urbani [1]: 0.6
Binding of serum 2 to looped/cyclic peptides of protein M of SARS-CoV Urbani [1]: 0.9
Binding of serum 6 to linear peptides of protein M of SARS-CoV Urbani [1]: 0.8
Binding of serum 6 to looped/cyclic peptides of protein M of SARS-CoV Urbani [1]: 1.4
Binding of serum 37 to linear peptides of protein M of SARS-CoV Urbani [1]: 0.7
Binding of serum 37 to looped/cyclic peptides of protein M of SARS-CoV Urbani [1]: 0.7
Binding of serum 62 to linear peptides of protein M of SARS-CoV Urbani [1]: 0.8
Binding of serum 62 to looped/cyclic peptides of protein M of SARS-CoV Urbani [1]: 0.7
Binding of serum London to linear peptides of protein M of SARS-CoV Urbani [1]: 0.4
Binding of serum London to looped/cyclic peptides of protein M of SARS-CoV Urbani [1]: 0.3
Binding of serum SARS-green to linear peptides of protein M of SARS-CoV Urbani [1]: 0.3
Binding of serum SARS-green to looped/cyclic peptides of protein M of SARS-CoV Urbani [1]: 0.2
Binding of serum SARS-yellow to linear peptides of protein M of SARS-CoV Urbani [1]: 0.0
Binding of serum SARS-yellow to looped/cyclic peptides of protein M of SARS-CoV Urbani [1]: 0.7
Rabbit serum linear peptides [2]: 1.2
Rabbit serum looped peptides [2]: 1.6
Binding of Control Serum Blood-Bank to Looped peptides of the protein M of SARS-CoV Urbani [3]: 0.7
Binding of Control serum Blood-bank to linear peptides of the protein M of SARS-CoV Urbani [3]: 0.6
Binding of Control serum LUMC to linear peptides of the protein M of SARS-CoV Urbani [3]: 0.4
Binding of Control serum LUMC to looped peptides of the protein M of SARS-CoV Urbani [3]: 0.8

SHLLLVAAGMEAQFL
Binding of serum 1a to linear peptides of protein X1 of SARS-CoV Urbani [1]: 0.8
Binding of serum 1a to looped/cyclic peptide (PEPSCAN-ELISA) [1]: 0.2
Binding of serum 1b to linear peptides of protein X1 of SARS-CoV Urbani [1]: 0.7
Binding of serum 1b to looped/cyclic peptide (PEPSCAN-ELISA) [1]: 0.5
Binding of serum 2 to linear peptides of protein X1 of SARS-CoV Urbani [1]: 0.7
Binding of serum 2 to looped/cyclic peptide (PEPSCAN-ELISA) [1]: 0.1
Binding of serum 6 to linear peptides of protein X1 of SARS-CoV Urbani [1]: 0.6
Binding of serum 6 to looped/cyclic peptide (PEPSCAN-ELISA) [1]: 0.1
Binding of serum 37 to linear peptides of protein X1 of SARS-CoV Urbani [1]: 0.8
Binding of serum 37 to looped/cyclic peptide (PEPSCAN-ELISA) [1]: 0.1
Binding of serum 62 to linear peptides of protein X1 of SARS-CoV Urbani [1]: 0.8
Binding of serum 62 to looped/cyclic peptide (PEPSCAN-ELISA) [1]: 0.2
Binding of serum London to linear peptides of protein X1 of SARS-CoV Urbani [1]: 0.3
Binding of serum London to looped/cyclic peptide (PEPSCAN-ELISA) [1]: 0.1
Binding of serum SARS-green to linear peptides of protein X1 of SARS-CoV Urbani [1]: 0.3
Binding of serum SARS-green to looped/cyclic peptide (PEPSCAN-ELISA) [1]: 0.5
Binding of serum SARS-yellow to linear peptides of protein X1 of SARS-CoV Urbani [1]: 0.7
Binding of serum SARS-yellow to looped/cyclic peptide (PEPSCAN-ELISA) [1]: 0.0
Binding of a rabbit serum to linear peptides [2]: 0.5
Binding of a rabbit serum to looped peptides [2]: 0.0
Binding of Control Serum Blood-Bank to Looped peptides [3]: 0.4
Binding of Control serum Blood-bank to linear peptides [3]: 0.7
Binding of Control serum LUMC to linear peptides [3]: 0.7
Binding of Control serum LUMC to looped peptides [3]: 0.2

SKNPLLYDANYFVCW
Binding of serum 1a to linear peptides of protein X1 of SARS-CoV Urbani [1]: 0.7
Binding of serum 1a to looped/cyclic peptide (PEPSCAN-ELISA) [1]: 0.6
Binding of serum 1b to linear peptides of protein X1 of SARS-CoV Urbani [1]: 0.5
Binding of serum 1b to looped/cyclic peptide (PEPSCAN-ELISA) [1]: 0.5
Binding of serum 2 to linear peptides of protein X1 of SARS-CoV Urbani [1]: 0.4
Binding of serum 2 to looped/cyclic peptide (PEPSCAN-ELISA) [1]: 0.5
Binding of serum 6 to linear peptides of protein X1 of SARS-CoV Urbani [1]: 0.5
Binding of serum 6 to looped/cyclic peptide (PEPSCAN-ELISA) [1]: 0.4
Binding of serum 37 to linear peptides of protein X1 of SARS-CoV Urbani [1]: 0.5
Binding of serum 37 to looped/cyclic peptide (PEPSCAN-ELISA) [1]: 0.6
Binding of serum 62 to linear peptides of protein X1 of SARS-CoV Urbani [1]: 0.4
Binding of serum 62 to looped/cyclic peptide (PEPSCAN-ELISA) [1]: 0.6
Binding of serum London to linear peptides of protein X1 of SARS-CoV Urbani [1]: 0.2
Binding of serum London to looped/cyclic peptide (PEPSCAN-ELISA) [1]: 0.2
Binding of serum SARS-green to linear peptides of protein X1 of SARS-CoV Urbani [1]: 0.2
Binding of serum SARS-green to looped/cyclic peptide (PEPSCAN-ELISA) [1]: 0.4
Binding of serum SARS-yellow to linear peptides of protein X1 of SARS-CoV Urbani [1]: 0.4
Binding of serum SARS-yellow to looped/cyclic peptide (PEPSCAN-ELISA) [1]: 0.5
Binding of a rabbit serum to linear peptides [2]: 0.1
Binding of a rabbit serum to looped peptides [2]: 0.6
Binding of Control Serum Blood-Bank to Looped peptides [3]: 0.6
Binding of Control serum Blood-bank to linear peptides [3]: 0.4
Binding of Control serum LUMC to linear peptides [3]: 0.5
Binding of Control serum LUMC to looped peptides [3]: 0.6
